# In patent EP0745595A1, “3-(3-Aryloxyphenyl)-1-(substituted methyl)-s-triazine-2,4,6-oxo or thiotrione herbicidal agents” (American Cyanamid Company, priority 1995, dated 1996):
# Assays:
# Type in all cases: in vivo
# [1] = tested on: ABUTILON THEOPHRASTI, MEDIC.; assay: Postemergence herbicidal evaluation, ABUTH (Velvetleaf); conditions: rated four to five weeks after treatment, averaged
# Summary of the method: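 This postemergence herbicide test used two-week-old velvetleaf seedlings grown in jiffy flats. Each compound was sprayed at 40 psi as a dispersion in 50/50 acetone/water with 0.5% TWEEN®20 surfactant. Plants then received routine greenhouse care. After four to five weeks, injury was scored visually on a 0-9 scale against a control, and replicate tests were averaged.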
# [2] = tested on: CHENOPODIUM ALBUM, L.; assay: Preemergence herbicidal evaluation, CHEAL (Lambsquarters, Common); conditions: four to five weeks after treatment
# Summary of the method: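 Rated 0-9 by visual comparison with control (stand, vigor, malformation, size, chlorosis, overall appearance) four to five weeks after preemergence soil spray. Dose equivalent to about 0.125 to 0.50 kg per hectare, applied in aqueous acetone to freshly seeded cups kept in greenhouse.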
# [3] = tested on: GALIUM APARINE; assay: Preemergence herbicidal evaluation, GALAP (Galium); conditions: four to five weeks after treatment
# Source text: Results of herbicide evaluation are expressed on a rating scale (0-9). The scale is based upon a visual observation of plant stand, vigor, malformation, size, chlorosis and overall plant appearance as compared with a control.
# The preemergence herbicidal activity of the test compounds of the present invention is exemplified by the following tests in which the seeds of a variety of monocotyledonous and dicotyledonous plants are separately mixed with potting soil and planted on top of approximately one inch of soil in separate pint cups. […] The treated cups are then placed on greenhouse benches, watered and cared for in accordance with conventional greenhouse procedures. From four to five weeks after treatment, the tests are terminated and each cup is examined and rated according to the rating system provided in Example 40.
# The compounds evaluated are reported by compound number given in Example 40.
# [4] = tested on: SAGITTARIA PYGMAEA, L.; assay: Preemergence weed control under flooded paddy conditions, SAGPY (Arrowhead (Pygmaea)); conditions: preemergence weeds, rated three to four weeks after treatment
# Summary of the method: (§1)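 Visual 0-9 rating against untreated control, covering stand, vigor, malformation, size and chlorosis, scored three to four weeks post-treatment in a greenhouse. Application was into 1.5-3 cm flood water over silt loam sown at 0.5 cm. The 50/50 v/v aqueous/acetone doses were about 0.5, 0.25, 0.125 and 0.063 kg/ha.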
# [5] = tested on: ORYZA SATIVA, L. TEBONNET; assay: Rice tolerance to post-transplant applications under flooded paddy conditions, ORYSAT (Rice, Tebonnet); conditions: post-transplant rice, rated three to four weeks after treatment;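 also: applied to flooded soil surface three days after transplanting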
# Summary of the method: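 Rated on a visual 0–9 scale against untreated plants 3–4 weeks after application, rice (cv. Tebonnet) tolerance was tested by applying compounds (approx. 0.5–0.063 kg/ha, acetone/water 50/50) to flooded soil three days post-transplant, water kept 1.5–3 cm deep.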
# [6] = tested on: CYPERUS SEROTINUS, ROTTB.; assay: Preemergence weed control under flooded paddy conditions, CYPSE (Flatsedge); conditions: preemergence weeds, rated three to four weeks after treatment
# Summary of the method: as §1
smiles,measurement,setting,value
"CCOC(=O)Cn1c(=O)n(CC(=O)OC)c(=O)n(-c2cc(Oc3ccc(C(F)(F)F)cc3Cl)ccc2[N+](=O)[O-])c1=O [Compound 6, 1-Ethyl methyl 5-{5-[(2-chloro-α,α,α-tri-fluoro-p-tolyl)oxy]-2-nitrophenyl}dihydro-2,4,6-trioxo-s-triazine-1,3(2H,4H)-diacetate]","ABUTH, herbicide rating (0-9)",[1]; Rate 0.125 kg/ha,9.0
same,"ABUTH, herbicide rating (0-9)",[1]; Rate 0.250 kg/ha,9.0
same,"ABUTH, herbicide rating (0-9)",[1]; Rate 0.500 kg/ha,9.0
same,CHEAL rating,[2]; Rate 0.125 kg/ha,9.0
same,CHEAL rating,[2]; Rate 0.250 kg/ha,9.0
same,CHEAL rating,[2]; Rate 0.500 kg/ha,9.0
same,GALAP rating,[3]; Rate 0.125 kg/ha,9.0
same,GALAP rating,[3]; Rate 0.250 kg/ha,9.0
same,GALAP rating,[3]; Rate 0.500 kg/ha,9.0
same,SAGPY herbicidal rating,[4]; Rate 0.125 kg/ha,0.0
same,SAGPY herbicidal rating,[4]; Rate 0.250 kg/ha,0.0
same,SAGPY herbicidal rating,[4]; Rate 0.500 kg/ha,0.0
same,ORYSAT herbicidal rating (rice tolerance),[5]; Rate 0.125 kg/ha,1.0
same,ORYSAT herbicidal rating (rice tolerance),[5]; Rate 0.250 kg/ha,1.0
same,ORYSAT herbicidal rating (rice tolerance),[5]; Rate 0.500 kg/ha,1.0
"C#CCn1c(=O)n(CC(=O)OCC)c(=O)n(-c2cc(Oc3ccc(C(F)(F)F)cc3Cl)ccc2[N+](=O)[O-])c1=O [Compound 7, Ethyl 3-{5-[(2-chloro-α,α,α-trifluoro-p-tolyl)oxy]-2-nitrophenyl}tetrahydro-2,4,6-trioxo-5-(2-propynyl)-s-triazine-1(2H)-acetate]",GALAP rating,[3]; Rate 0.125 kg/ha,4.0
same,GALAP rating,[3]; Rate 0.250 kg/ha,8.0
same,GALAP rating,[3]; Rate 0.500 kg/ha,9.0
same,CYPSE herbicidal rating,[6]; Rate 0.125 kg/ha,0.0
same,CYPSE herbicidal rating,[6]; Rate 0.250 kg/ha,0.0
same,SAGPY herbicidal rating,[4]; Rate 0.125 kg/ha,0.0
same,SAGPY herbicidal rating,[4]; Rate 0.250 kg/ha,0.0
same,SAGPY herbicidal rating,[4]; Rate 0.500 kg/ha,0.0
same,ORYSAT herbicidal rating (rice tolerance),[5]; Rate 0.125 kg/ha,0.0
same,ORYSAT herbicidal rating (rice tolerance),[5]; Rate 0.250 kg/ha,0.0
same,ORYSAT herbicidal rating (rice tolerance),[5]; Rate 0.500 kg/ha,1.0
